Experimental data: US20210032291A1, “Compstatin Analogs With Improved Pharmacokinetic Properties” (The Trustees of the University of Pennsylvania, priority 2011, published 2021)
Converted amounts (≈) assume the structure as drawn.

Legend:
C3b = target: T1, C3b (Homo sapiens, UniProt P01024); assay: SPR kinetic analysis of binding to immobilized C3b (Biacore, single cycle kinetics)
T1 construct: Biotinylated C3b was captured site-specifically on a streptavidin chip
Method: SPR analysis. The interaction of the compstatin analogs with C3b was characterized using a Biacore 3000 instrument (GE Healthcare, Corp., Piscataway, N.J.). The running buffer was PBS, pH 7.4 (10 mM sodium phosphate, 150 mM NaCl) with 0.005% Tween-20. Biotinylated C3b was captured site-specifically on a streptavidin chip at about 3000 and 5000 RU density; two untreated flow cells were used as reference surface. For kinetic analysis, sets of five increasing concentrations of a particular compound were injected over the chip surface one after the other in a single cycle. […] Processed biosensor data were globally fitted to a 1:1 Langmuir binding model (kindly provided by GE Helthcare), and the equilibrium dissociation constant (KD) was calculated from the equation KD=kd/ka. Each assay was performed at least twice.

[1] = tested on: complement activation via the alternative pathway; assay: Erythrocyte hemolytic assay on plasma samples of treated baboon; assay type: in vivo; settings: intramuscular injection 2 mg/kg
Method: (§1) Hemolytic assay. Rabbit erythrocytes were washed with phosphate-buffered saline (PBS) followed by washing with Veronal-buffered saline (VBS)^Mg+/EGTA. A 1:20 dilution was prepared in VBS buffer. Plasma samples (1:10 in VBS−100 μl) was incubated with the rabbit erythrocytes solution (50 μl) in a 96-well plate at 37° C. for 1 h. EDTA (0.2 mM-15μl) was added to stop the reaction and plate was centrifuged (2500×g 3 min). Supernatant (100μl) was transferred to a new well and optical density was measured at 405 nm. Incubation of erythrocytes with water or buffer was used as positive (100% lysis) and negative (0% lysis) control, respectively.
(§2) Extraction of compstatin analog from plasma samples and LC-MS/MS analysis were performed as described in Example 7. A hemolytic assay was performed as described in Example 5.

in vitro = settings: human, plasma
Method: Plasma stability. Fresh human plasma containing lepirudin (3.75 units/ml) was incubated at 37° C. with Cp30 (SEQ ID NO:7), Cp40 (SEQ ID NO:18) or control peptide 2B at a final concentration of 20 μM each. Samples of 100 μL were taken for solid phase extraction. A 96-well plate HLB Oasis 30 μm 10 mg (Waters, Milford, Mass.) was employed for extraction. The SPE material was conditioned by addition of 500 μL each of methanol and ACN followed by addition of 500 μL of milli-Q water. Sample was diluted 1:1 with 4% H3PO4. After loading the sample, washing was carried out twice with 500 μL of 10% ACN in 0.1% formic acid. Sample was eluted with 200 μL of 65% ACN in 0.1% formic acid and collected in the Eppendorf LoBind collection plate. Sample for UPLC-MS was diluted 1:10 in milli-Q water with 0.1% formic acid. Cp20 (SEQ ID NO:3) was spiked in each sample before SPE as an internal standard.
UPLC-MS analysis. UPLC-MS analysis was performed on a SYNAPT HDMS (Waters, Milford, Mass.) equipped with an ESI source controlled by MassLynx 4.1 software (Waters). Each sample was injected in quadruplicates. An online ACQUITY UPLC (Waters) system was used for peptide separation by reversed-phase liquid chromatography. The capillary voltage was 3.2 kV, the cone voltage was 30 V and the source temperature was 120° C. [Glu1]-fibrinogen peptide was used for lock-mass correction with a sampling rate of 30 s. […]

[2] = tested on: complement activation via the alternative pathway; assay: Erythrocyte hemolytic assay on plasma samples of treated cynomolgus monkeys; assay type: in vivo, cynomolgus monkeys (Macaca fascicularis); settings: subcutaneous injection 2 mg/kg
Method: as §1
(§3) Analyses. Analysis of plasma samples, determination of plasma half-life and complement inhibitory activity in plasma were performed as described in Example 5.

in vivo [3] = settings: cynomolgus monkey, iv, 2 mg/kg
Method: Primate studies and sample collection. Evaluation of plasma half-life and generation of major metabolites was performed at the Simian Conservation Breeding and Research Center (SICONBREC, Makati City, Philippines) in cynomolgus monkeys (Macaca fascicularis). […] Blood samples (1-2 mL) were collected immediately before and at various time points after compound injection (2, 5 and 30 min; 1, 2, 4, 6, and 24 hours) in EDTA-coated Vacutainer tubes to prevent coagulation and complement activation, and centrifuged at ˜800×g for 10 min to obtain plasma. Plasma samples were immediately frozen and stored for further analysis. All NHP studies were performed in accordance with animal welfare laws and regulations.
Analysis of plasma samples. Prior to analysis by UPLC-MS, compstatin analogs in the plasma samples were extracted by solid phase extraction (SPE) in a 96-well plate format (HLB Oasis 30 μm, 10 mg; Waters, Milford, Mass.). […] Eluted peptides were directly analyzed by HDMS; the ESI source capillary voltage was set to 3.2 kV, the cone voltage to 30 V and the source temperature to 120° C. […]
Determination of plasma half-life. […] All calibration samples were subjected to SPE and measured using UPLC-HDMS as described above. […] For the pharmacokinetic analysis, the plasma concentration (Cp) at each time point was calculated from the extracted peak area of each peptide using the corresponding standard curve.

in vivo [4] = assay: in vivo; parameters: species or system cynomolgus monkeys (Macaca fascicularis); settings: cynomolgus monkey
Method: Primate studies and sample collection. […] Two healthy animals were used for each route of administration. The animals were sedated and injected subcutaneously with 2 mg/kg of the compound or orally by intragastric gavage with 4 mg/kg of the compound.
as §3

in vivo [5] = assay: in vivo; parameters: species or system baboon; settings: 2 mg/kg
Method: A juvenile baboon was injected intramuscularly with 2 mg/kg Cp40 (SEQ ID NO:18) Blood samples for the LC-MS/MS assay were collected in 1-ml plastic tubes containing 50 μg lepirudin, and centrifuged at 2000 g for 20 min at 4° C. for plasma separation. Plasma samples were stored at −70° C. Blood samples were collected at pre-determined time intervals after injection of the analog. Samples were treated with SPE and analyzed using LC-MS/MS. Calibration curves were created using standard peptides at various concentrations in plasma to determine peptide concentration in each sample.
as §2

[6] = Solubility in WFI and DPBS; UPLC C18 retention time as hydrophobicity; settings: UPLC analysis on a C18 column
Method: (§4) Approximately 5 mg of each peptide (acetate form) was weighed out into separate LoBind Eppendorf tubes and 50 μL water for injection (WFI) was added to each tube. Each sample was centrifuged at 13000 rpm for 2 min and diluted for measuring the optical density (OD) at 280 nm using a NanoDrop 2000 spectrophotometer (ThermoScientific, Wilmington, Del.). Each concentrated sample was diluted 1:20 into Dulbecco's phosphate buffered saline (DPBS, without potassium and calcium; Invitrogen, Carlsbad, Calif.). The samples were monitored for precipitation, and each sample was vortexed for 5 min and centrifuged at 13000 rpm for 2 min. The OD of each DPBS supernatant was measured to determine peptide concentration at saturation.
(§5) In addition, the ultra performance liquid chromatography (UPLC) retention time of these peptides on a C18 column was measured to reflect their apparent relative hydrophobicity (Table 3).

[7] = tested on: classical pathway of complement; assay: ELISA inhibition of classical pathway complement activation; assay type: biochemical; settings: read-out: IC50, peptide concentration to reach 50% inhibition of classical pathway complement activation; Table 1
Method: Inhibition of complement activation. The ability of the compstatin analogs to inhibit the activation of the classical pathway of complement was assessed by ELISA as described elsewhere (Katragadda et al., 2006, supra; Mallik et al., 2005, supra). The percent inhibition was plotted against the peptide concentration, and the resulting data set was fitted to the logistic dose-response function using Origin 8.0 software. IC50 values were obtained from the fitted parameters that produced the lowest χ2 value. Each analog was assayed at least three times.

[8] = 5 min, pH 7.4
Method: as §4, §5

T1 sequence (P01024 23-667 limits assumed): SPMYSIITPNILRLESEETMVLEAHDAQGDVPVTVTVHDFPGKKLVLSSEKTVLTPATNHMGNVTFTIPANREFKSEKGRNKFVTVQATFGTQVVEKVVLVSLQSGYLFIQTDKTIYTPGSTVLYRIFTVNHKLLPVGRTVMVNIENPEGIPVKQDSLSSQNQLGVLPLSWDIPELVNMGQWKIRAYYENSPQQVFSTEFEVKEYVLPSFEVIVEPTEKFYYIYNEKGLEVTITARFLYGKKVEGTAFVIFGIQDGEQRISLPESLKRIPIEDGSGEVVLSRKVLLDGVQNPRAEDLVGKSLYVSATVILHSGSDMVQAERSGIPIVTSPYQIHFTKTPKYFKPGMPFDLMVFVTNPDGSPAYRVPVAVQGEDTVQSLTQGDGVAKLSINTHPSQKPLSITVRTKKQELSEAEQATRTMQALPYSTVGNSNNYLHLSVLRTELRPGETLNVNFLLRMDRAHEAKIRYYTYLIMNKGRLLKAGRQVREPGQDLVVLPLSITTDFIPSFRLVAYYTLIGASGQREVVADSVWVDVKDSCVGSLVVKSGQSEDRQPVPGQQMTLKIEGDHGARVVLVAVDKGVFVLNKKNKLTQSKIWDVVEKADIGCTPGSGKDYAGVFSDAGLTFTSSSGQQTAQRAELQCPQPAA
T1 sequence (P01024 749-1663 partner limits assumed): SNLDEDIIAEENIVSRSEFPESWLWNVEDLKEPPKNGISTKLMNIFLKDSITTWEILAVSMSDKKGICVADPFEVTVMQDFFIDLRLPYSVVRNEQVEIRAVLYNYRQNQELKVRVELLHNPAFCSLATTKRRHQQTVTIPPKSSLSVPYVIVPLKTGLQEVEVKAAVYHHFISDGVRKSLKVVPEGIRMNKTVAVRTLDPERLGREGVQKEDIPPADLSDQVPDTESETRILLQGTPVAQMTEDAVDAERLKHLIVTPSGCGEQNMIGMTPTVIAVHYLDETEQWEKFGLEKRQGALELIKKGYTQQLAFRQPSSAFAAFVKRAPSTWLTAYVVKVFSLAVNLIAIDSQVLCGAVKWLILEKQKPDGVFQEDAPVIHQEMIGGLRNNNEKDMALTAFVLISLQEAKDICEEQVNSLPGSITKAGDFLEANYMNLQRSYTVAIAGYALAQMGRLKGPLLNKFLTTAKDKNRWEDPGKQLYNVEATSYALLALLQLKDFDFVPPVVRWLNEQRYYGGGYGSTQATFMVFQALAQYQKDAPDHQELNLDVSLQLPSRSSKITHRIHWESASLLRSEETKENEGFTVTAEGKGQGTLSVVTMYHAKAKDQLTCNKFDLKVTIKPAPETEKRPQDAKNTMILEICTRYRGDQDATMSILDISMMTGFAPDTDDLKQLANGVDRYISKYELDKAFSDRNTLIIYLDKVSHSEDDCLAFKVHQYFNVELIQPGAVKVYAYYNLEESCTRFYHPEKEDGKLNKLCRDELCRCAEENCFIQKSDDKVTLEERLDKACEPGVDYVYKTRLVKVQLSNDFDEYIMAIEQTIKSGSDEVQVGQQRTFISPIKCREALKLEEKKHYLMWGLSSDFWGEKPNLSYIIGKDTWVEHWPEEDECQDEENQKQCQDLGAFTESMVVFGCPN
Method for physchem: as §4, §5

CC[C@H](C)[C@H](NC(=O)[C@H](N)Cc1ccc(O)cc1)C(=O)N[C@H]1CSSC[C@@H](C(=O)N(C)[C@H](C(N)=O)[C@@H](C)CC)NC(=O)[C@H](CCCNC(=N)N)NC(=O)[C@H](Cc2c[nH]cn2)NC(=O)[C@H](C)NC(=O)CN(C)C(=O)[C@H](Cc2c[nH]c3ccccc23)NC(=O)[C@H](CC(=O)O)NC(=O)[C@H](CCC(N)=O)NC(=O)[C@H](Cc2cn(C)c3ccccc23)NC(=O)[C@H](C(C)C)NC1=O [peptide 14, dTyr-Ile-[Cys-Val-Trp(Me)-Gln-Asp-Trp-Sar-Ala-His-Arg-Cys]-mIle-NH2]
ka: association rate (C3b; Table 1, N-terminal analogs): 2.8 ± 0.5 10^6/Ms
ka: association rate (C3b; Table 2, Cp40-based analogs): 2.8 ± 0.6 10^6/Ms
Complement inhibitory activity versus analog concentration in plasma samples [1]: closely track the concentration of analog
remaining at 120 h, 20 μM (in vitro): > 55%
Complement inhibitory activity versus analog concentration in plasma samples [2]: closely track the concentration of analog
Cmax (in vivo [3]): ~28 µM
Time to reach the stated plasma concentration (in vivo [4]; po, 4 mg/kg): within one hour
level at time molar (in vivo [4]; po, 4 mg/kg): ~0.023 µM
Cmax (in vivo [4]; sc, 2 mg/kg): ~12.5 µM
Time to peak plasma concentration (in vivo [4]; sc, 2 mg/kg): 4 to 5 h
Time to peak plasma concentration (in vivo [5]): 5 to 6 h
Cmax (in vivo [5]; monkey, im): ~10 µM
Hydrophobicity Retention Time [6]: 4.73 min
IC50 [7]: 66 ± 8 nM
Solubility DPBS pH7.4 [8]: 0.8 mg/mL
solubility (physchem): > 50000 µg/mL
solubility at 5 min (physchem; pH 7.4): 800 µg/mL (≈ 447 µM)
